The source made the active and inactive calls. No cut-off for these calls is given here.
What was measured:
Type in all cases: cell-based
[1] = target: T1, Neuronal acetylcholine receptor subunit alpha-7 (Homo sapiens, UniProt P36544); experiment: Agonist activity at human alpha7 nAChR expressed in Xenopus laevis oocytes assessed as induction of channel current at 100 uM at -90 mV holding potential by two-electrode voltage clamp method relative to acetylcholine
[2] = target: T1, Neuronal acetylcholine receptor subunit alpha-7; experiment: Agonist activity at human alpha7 nAChR expressed in Xenopus laevis oocytes assessed as induction of channel current at 10 uM at -90 mV holding potential by two-electrode voltage clamp method relative to acetylcholine
[3] = target: T1, Neuronal acetylcholine receptor subunit alpha-7; experiment: Agonist activity at human alpha7 nAChR expressed in Xenopus laevis oocytes assessed as induction of channel current at -90 mV holding potential by two-electrode voltage clamp method
[4] = target: T1, Neuronal acetylcholine receptor subunit alpha-7; experiment: Agonist activity at human alpha7 nAChR expressed in Xenopus laevis oocytes assessed as peak current amplitude at -90 mV holding potential by two-electrode voltage clamp method relative to acetylcholine
[5] = target: T1, Neuronal acetylcholine receptor subunit alpha-7; experiment: Induction of desensitization at human alpha7 nAChR expressed in Xenopus laevis oocytes assessed as inhibition of acetylcholine induced current treated with compound prior to 100 uM acetylcholine challenge at -90 mV holding potential by two-electrode voltage clamp method
[6] = target: T2, 5-hydroxytryptamine receptor 3A (Homo sapiens) (UniProt P46098); experiment: Antagonist activity at human 5-HT3A receptor expressed in Xenopus laevis oocytes at 10 uM at -90 mV holding potential in presence of serotonin by two-electrode voltage clamp method
T2 sequence (whole entry): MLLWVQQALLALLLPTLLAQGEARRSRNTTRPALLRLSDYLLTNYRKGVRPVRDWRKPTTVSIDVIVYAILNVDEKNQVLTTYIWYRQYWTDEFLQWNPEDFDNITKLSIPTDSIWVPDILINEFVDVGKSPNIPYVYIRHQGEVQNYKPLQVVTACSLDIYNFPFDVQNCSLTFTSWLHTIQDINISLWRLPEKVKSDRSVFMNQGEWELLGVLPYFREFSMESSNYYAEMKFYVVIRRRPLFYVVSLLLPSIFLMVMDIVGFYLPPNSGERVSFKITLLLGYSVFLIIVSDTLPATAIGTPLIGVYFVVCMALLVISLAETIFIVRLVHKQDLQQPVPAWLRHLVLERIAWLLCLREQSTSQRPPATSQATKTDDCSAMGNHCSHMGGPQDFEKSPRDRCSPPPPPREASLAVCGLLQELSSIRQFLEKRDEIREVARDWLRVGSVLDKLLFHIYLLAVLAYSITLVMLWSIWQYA

[7] = target: T3, Neuronal acetylcholine receptor; alpha3/beta4 (Homo sapiens, UniProt P30926+P32297); experiment: Antagonist activity at alpha3beta4 nAChR (unknown origin) expressed in Xenopus laevis oocytes assessed as inhibition of acetylcholine-induced channel current at -90 mV holding potential by two-electrode voltage clamp method
[8] = target: T3, Neuronal acetylcholine receptor; alpha3/beta4; experiment: Agonist activity at alpha3beta4 nAChR (unknown origin) expressed in Xenopus laevis oocytes assessed as channel current at 10 uM at -90 mV holding potential by two-electrode voltage clamp method
[9] = target: T1, Neuronal acetylcholine receptor subunit alpha-7; experiment: Agonist activity at human alpha7 nAChR expressed in Xenopus laevis oocytes assessed as channel current at 10 uM at -90 mV holding potential in presence of 10 nM alpha7 nAChR antagonist, MLA by two-electrode voltage clamp method
Homo sapiens [10] = organism: Homo sapiens; experiment: Selectivity index, ratio of EC50 for alpha4beta2 nAChR (unknown origin) expressed in Xenopus laevis oocytes to EC50 for human alpha7 nAChR expressed in Xenopus laevis oocytes
[11] = target: T2, 5-hydroxytryptamine receptor 3A (Homo sapiens); experiment: Agonist activity at human 5-HT3A receptor expressed in Xenopus laevis oocytes at 10 uM at -90 mV holding potential by two-electrode voltage clamp method
Homo sapiens [12] = organism: Homo sapiens; experiment: Selectivity index, ratio of IC50 for alpha3beta4 nAChR (unknown origin) expressed in Xenopus laevis oocytes to EC50 for human alpha7 nAChR expressed in Xenopus laevis oocytes
[13] = target: T1, Neuronal acetylcholine receptor subunit alpha-7; experiment: Agonist activity at human alpha7 nAChR expressed in Xenopus laevis oocytes preincubated with 1 uM alpha7 type-2 PAM PNU-120596 at -90 mV holding potential by two-electrode voltage clamp method
[14] = target: T1, Neuronal acetylcholine receptor subunit alpha-7; experiment: Agonist activity at human alpha7 nAChR expressed in Xenopus laevis oocytes assessed as increase in channel current at 10 uM at -90 mV holding potential in presence of 10 nM alpha7 nAChR antagonist, MLA measured after 10 mins by two-electrode voltage clamp method
[15] = target: T4, 5-hydroxytryptamine receptor 3A (Homo sapiens, UniProt P46098); experiment: (§1) Antagonist activity at human 5-HT3A receptor expressed in Xenopus laevis oocytes at -90 mV holding potential in presence of serotonin by two-electrode voltage clamp method
T4 sequence (P46098 whole entry): T2 sequence (whole entry)

[16] = target: T2, 5-hydroxytryptamine receptor 3A (Homo sapiens); experiment: as §1
[17] = target: T5, Neuronal acetylcholine receptor; alpha4/beta2 (Homo sapiens, UniProt P17787+P43681); experiment: Agonist activity at alpha4beta2 nAChR (unknown origin) expressed in Xenopus laevis oocytes at -90 mV holding potential by two-electrode voltage clamp method
[18] = target: T5, Neuronal acetylcholine receptor; alpha4/beta2; experiment: Agonist activity at alpha4beta2 nAChR (unknown origin) expressed in Xenopus laevis oocytes assessed as induction of current at 10 uM at -90 mV holding potential by two-electrode voltage clamp method
[19] = target: T3, Neuronal acetylcholine receptor; alpha3/beta4; experiment: Agonist activity at alpha3beta4 nAChR (unknown origin) expressed in Xenopus laevis oocytes assessed as induction of current at 100 uM at -90 mV holding potential by two-electrode voltage clamp method

T1 sequence (P36544 whole entry): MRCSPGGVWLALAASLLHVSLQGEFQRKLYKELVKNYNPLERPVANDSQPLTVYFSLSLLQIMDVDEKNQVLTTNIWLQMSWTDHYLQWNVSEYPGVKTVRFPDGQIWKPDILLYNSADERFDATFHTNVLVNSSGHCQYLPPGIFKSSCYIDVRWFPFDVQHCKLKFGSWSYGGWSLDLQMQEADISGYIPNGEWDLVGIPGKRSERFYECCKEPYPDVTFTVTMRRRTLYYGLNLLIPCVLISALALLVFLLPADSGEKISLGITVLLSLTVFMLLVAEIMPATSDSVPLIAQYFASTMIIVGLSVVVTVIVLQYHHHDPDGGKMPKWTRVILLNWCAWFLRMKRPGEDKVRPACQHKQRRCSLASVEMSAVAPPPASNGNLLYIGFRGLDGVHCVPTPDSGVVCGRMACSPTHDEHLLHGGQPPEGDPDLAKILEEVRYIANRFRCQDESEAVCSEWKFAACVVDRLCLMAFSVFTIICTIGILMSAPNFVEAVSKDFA
T3 sequence (P30926 whole entry): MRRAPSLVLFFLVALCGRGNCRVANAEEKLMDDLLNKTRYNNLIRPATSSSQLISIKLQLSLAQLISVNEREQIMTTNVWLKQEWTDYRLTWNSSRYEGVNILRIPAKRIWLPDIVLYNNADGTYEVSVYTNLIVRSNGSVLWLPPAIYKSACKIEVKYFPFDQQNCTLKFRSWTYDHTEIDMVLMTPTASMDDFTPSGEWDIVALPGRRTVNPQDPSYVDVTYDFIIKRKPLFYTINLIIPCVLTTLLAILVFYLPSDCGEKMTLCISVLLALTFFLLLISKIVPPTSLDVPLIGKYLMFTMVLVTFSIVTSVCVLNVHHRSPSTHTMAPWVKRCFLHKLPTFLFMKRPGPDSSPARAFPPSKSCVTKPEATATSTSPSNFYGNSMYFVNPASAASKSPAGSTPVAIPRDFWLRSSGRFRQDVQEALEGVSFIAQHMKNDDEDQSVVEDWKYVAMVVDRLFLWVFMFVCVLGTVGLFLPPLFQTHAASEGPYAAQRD
T3 sequence (P32297 whole entry): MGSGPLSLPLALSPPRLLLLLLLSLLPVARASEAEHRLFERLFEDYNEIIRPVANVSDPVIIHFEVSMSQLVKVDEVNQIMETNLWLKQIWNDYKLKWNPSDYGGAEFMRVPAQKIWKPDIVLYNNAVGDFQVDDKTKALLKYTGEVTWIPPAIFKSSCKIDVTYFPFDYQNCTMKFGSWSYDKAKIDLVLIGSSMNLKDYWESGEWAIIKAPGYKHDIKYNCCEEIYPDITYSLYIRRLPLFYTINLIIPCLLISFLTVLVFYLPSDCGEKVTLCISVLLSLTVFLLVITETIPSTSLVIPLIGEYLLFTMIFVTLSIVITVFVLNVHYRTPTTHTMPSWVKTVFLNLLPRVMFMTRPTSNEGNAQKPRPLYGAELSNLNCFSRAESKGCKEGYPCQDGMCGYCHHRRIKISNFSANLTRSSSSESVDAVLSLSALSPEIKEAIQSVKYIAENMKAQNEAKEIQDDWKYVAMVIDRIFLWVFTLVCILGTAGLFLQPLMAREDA
T5 sequence (P17787 whole entry): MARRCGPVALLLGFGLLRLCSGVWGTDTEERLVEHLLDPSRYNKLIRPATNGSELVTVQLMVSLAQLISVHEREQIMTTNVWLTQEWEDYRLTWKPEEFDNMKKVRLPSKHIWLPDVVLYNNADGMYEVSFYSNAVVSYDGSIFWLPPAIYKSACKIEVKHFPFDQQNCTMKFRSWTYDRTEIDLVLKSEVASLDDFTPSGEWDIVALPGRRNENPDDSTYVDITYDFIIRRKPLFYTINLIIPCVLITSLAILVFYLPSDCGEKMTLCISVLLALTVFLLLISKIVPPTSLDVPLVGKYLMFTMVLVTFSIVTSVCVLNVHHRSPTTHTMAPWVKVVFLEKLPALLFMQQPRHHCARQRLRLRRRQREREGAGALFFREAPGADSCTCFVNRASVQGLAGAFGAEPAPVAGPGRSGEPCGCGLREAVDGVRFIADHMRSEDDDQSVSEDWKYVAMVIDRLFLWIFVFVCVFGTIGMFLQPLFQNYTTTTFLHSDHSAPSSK
T5 sequence (P43681 whole entry): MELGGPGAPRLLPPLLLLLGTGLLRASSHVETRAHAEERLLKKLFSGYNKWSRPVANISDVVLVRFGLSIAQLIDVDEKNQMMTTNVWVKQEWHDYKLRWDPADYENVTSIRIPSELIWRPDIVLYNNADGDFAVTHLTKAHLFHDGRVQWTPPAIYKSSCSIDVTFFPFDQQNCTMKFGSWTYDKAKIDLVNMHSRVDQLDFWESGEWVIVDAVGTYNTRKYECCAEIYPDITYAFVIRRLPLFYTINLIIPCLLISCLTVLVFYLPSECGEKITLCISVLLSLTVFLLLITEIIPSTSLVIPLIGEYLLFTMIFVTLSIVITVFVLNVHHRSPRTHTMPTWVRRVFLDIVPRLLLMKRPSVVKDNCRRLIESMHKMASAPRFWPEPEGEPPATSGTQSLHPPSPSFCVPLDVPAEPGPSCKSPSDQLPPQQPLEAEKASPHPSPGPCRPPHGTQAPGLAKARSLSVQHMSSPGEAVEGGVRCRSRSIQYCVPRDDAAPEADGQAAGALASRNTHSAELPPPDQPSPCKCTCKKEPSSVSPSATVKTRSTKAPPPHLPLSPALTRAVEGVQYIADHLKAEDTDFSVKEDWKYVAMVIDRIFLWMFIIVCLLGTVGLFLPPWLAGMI

| SMILES | Activity [1] | Activity [2] | also measured |
| --- | --- | --- | --- |
| C=CCOc1ccc2c(ccc3cc(C(=O)N[C@H]4CN5CCC4CC5)cn32)c1 | inactive |  |  |
| O=C(N[C@H]1CN2CCC1CC2)c1cc2ccc3cc(-c4cccnc4)ccc3n2c1 | 60 to 120% | < 60% |  |
| Cc1ccccc1-c1ccc2c(ccc3cc(C(=O)N[C@H]4CN5CCC4CC5)cn32)c1 | > 120% | 60 to 120% | EC50 [3]: 3200 nM; Emax [4]: 23.1% |
| Cc1ccc2c(ccc3cc(C(=O)N[C@H]4CN5CCC4CC5)cn32)c1 | > 120% | > 120% | EC50 [3]: 1270 nM; Emax [4]: 29.2% |
| Cc1cc(-c2ccc3c(ccc4cc(C(=O)N[C@H]5CN6CCC5CC6)cn43)c2)ccn1 | < 60% |  |  |
| CC(C)Oc1ccc2c(ccc3cc(C(=O)N[C@H]4CN5CCC4CC5)cn32)c1 | inactive |  |  |
| CC(C)COc1ccc2c(ccc3cc(C(=O)N[C@H]4CN5CCC4CC5)cn32)c1 |  | inactive |  |
| O=C(N[C@H]1CN2CCC1CC2)c1cc2ccc3cc(-c4ccc(F)cc4)ccc3n2c1 | inactive |  |  |
| O=C(N[C@H]1CN2CCC1CC2)c1cc2ccc3cc(-c4ccncc4)ccc3n2c1 | < 60% |  |  |
| O=C(N[C@H]1CN2CCC1CC2)c1cc2ccc3cc(OCc4cccnc4)ccc3n2c1 | 60 to 120% |  |  |
| O=C(N[C@H]1CN2CCC1CC2)c1cc2cccc(Cl)c2s1 [ENCENICLINE] |  |  | EC50 [3]: 250 nM; Emax [4]: 27.6% |
| O=C(N[C@H]1CN2CCC1CC2)c1cc2ccc3cc(OC(F)F)ccc3n2c1 | 60 to 120% | < 60% |  |
| O=C(N[C@H]1CN2CCC1CC2)c1cc2ccc3cc(N4CCCC4)ccc3n2c1 |  | < 60% |  |
| O=C(N[C@H]1CN2CCC1CC2)c1cc2ccc3cc(C(F)(F)F)ccc3n2c1 |  | < 60% |  |
| O=C(N[C@H]1CN2CCC1CC2)c1cc2ccc3ccccc3n2c1 |  | 60 to 120% | IC50 [5]: 21.2 nM; inhibition [5]: Dose-dependent effect; inhibition [6]: Active; IC50 [7]: 10100 nM; Activity [8]: inactive; Activity [9]: inactive; EC50 [3]: 1880 nM; Ratio EC50 (Homo sapiens [10]): 3; Emax [4]: 72.4%; Activity [11]: inactive; Ratio IC50/EC50 (Homo sapiens [12]): 5; Activity [13]: Dose-dependent effect; EC50 [13]: 120 nM; Activity [14]: Active; IC50 [15]: 710 nM; inhibition [16]: Dose-dependent effect; EC50 [17]: 6140 nM; Activity [18]: Active |
| O=C(N[C@H]1CN2CCC1CC2)c1cc2n(c1)CCCC2 | < 60% |  |  |
| O=C(N[C@H]1CN2CCC1CC2)c1cc2ccc3cc(OCc4ccc(F)cc4)ccc3n2c1 | < 60% |  |  |
| O=C(N[C@H]1CN2CCC1CC2)c1cc2ccc3cc(N4CCCCC4)ccc3n2c1 |  | < 60% |  |

| SMILES | Activity [1] | Activity [2] | also measured |
| --- | --- | --- | --- |
| CC(C)(C)c1ccc(-c2ccc3c(ccc4cc(C(=O)N[C@H]5CN6CCC5CC6)cn43)c2)cc1 | 60 to 120% | 60 to 120% |  |
| CCCC(C)Oc1ccc2c(ccc3cc(C(=O)N[C@H]4CN5CCC4CC5)cn32)c1 (stereo partly specified) | inactive |  |  |
| O=C(N[C@H]1CN2CCC1CC2)c1cc2ccc3cc(Cl)ccc3n2c1 |  | < 60% |  |
| O=C(N[C@H]1CN2CCC1CC2)c1cc2ccc3cc(Br)ccc3n2c1 |  | < 60% |  |
| CC(=O)OCC[N+](C)(C)C |  |  | Activity [19]: Active |
| O=C(N[C@H]1CN2CCC1CC2)c1cc2ccc3cc(C4CC4)ccc3n2c1 |  | < 60% |  |
| COc1ccc2c(ccc3cc(C(=O)N[C@H]4CN5CCC4CC5)cn32)c1 |  | < 60% |  |
| CCCOc1ccc2c(ccc3cc(C(=O)N[C@H]4CN5CCC4CC5)cn32)c1 | < 60% | < 60% |  |
| O=C(N[C@H]1CN2CCC1CC2)c1cc2ccc3cc(OCc4ccccc4)ccc3n2c1 | < 60% |  |  |
| O=C(N[C@H]1CN2CCC1CC2)c1cc2n(c1)CCC2 | < 60% |  |  |
| O=C(N[C@H]1CN2CCC1CC2)c1cc2ccc3cc(OC4CCC4)ccc3n2c1 | < 60% |  |  |
| O=C(N[C@H]1CN2CCC1CC2)c1cc2ccc3cc(O)ccc3n2c1 | > 120% |  | EC50 [3]: 2000 nM; Emax [4]: 47.3% |
| CCC(CC)Oc1ccc2c(ccc3cc(C(=O)N[C@H]4CN5CCC4CC5)cn32)c1 | inactive |  |  |
| O=C(N[C@H]1CN2CCC1CC2)c1cc2ccc3cc(-c4ccsc4)ccc3n2c1 | < 60% |  |  |
| O=C(N[C@H]1CN2CCC1CC2)c1cc2ccc3cc(F)ccc3n2c1 |  | 60 to 120% | EC50 [3]: 8270 nM; Emax [4]: 58.6% |
| C#CCOc1ccc2c(ccc3cc(C(=O)N[C@H]4CN5CCC4CC5)cn32)c1 |  | 60 to 120% | EC50 [3]: 7630 nM; Emax [4]: 34.5% |
| O=C(N[C@H]1CN2CCC1CC2)c1cc2ccc3cc(-c4ccccc4)ccc3n2c1 | 60 to 120% | < 60% |  |
